Source: patent publication EP0102404A1, “Novel polycyclic fused pyrazole compounds useful as antiinflammatory agents and preparation thereof” (STERLING DRUG INC., priority 1982, dated 1984)

Assays:
Type in all cases: in vivo
Mature female rats = experiment: Endocrine profile (thymus, adrenal, body weight, food consumption) after oral medication for 2 weeks; conditions: compared with the controls
Protocol: The test procedures used to determine the biological activities of the compounds of the invention were carried out as follows: • Endocrine Profile: Mature female rats with an average body weight of 202 g and a body weight range of 15 g or less were medicated orally with test compound for 2 weeks. The test compound was prepared as a solution or suspension in 1% gum tragacanth or 0.75% methyl cellulose. On the day following the last medication, the rats were killed and the thymus and adrenal of each rat were removed, cleaned, and weighed. Body weights and food consumptions were also recorded.

Male rats = experiment: Anti-inflammatory activity (a-tocopherol pouch test)
Protocol: Male rats which weighed 120 g were selected for testing. A rapid subcutaneous injection of 25 mL of air was made between the scapulae of each rat. […] The test compound was administered in daily oral doses for 7 days beginning on the day of pouch formation. The compound to be tested was suspended in 1% gum tragacanth. Twenty-four hours after the last medication, the pouches were dissected free, and the fluid volume was measured.

[1] = system: Mature male rats, bilaterally adrenalectomized; experiment: Glycogenic activity (liver glycogen deposition test); conditions: for liver glycogen deposition: adrenalectomized male rats, vehicle 1.75 + 0.04 mg/g
Excerpt: Glycogenic Activity: Mature male rats were bilaterally adrenalectomized 5 days prior to the test. These rats were medicated orally with the test compound for 5 days. Seven hours after the last medication, the rats (which have been fasted overnight) were anesthetized with sodium pentobarbital and a portion of one lobe of the liver was removed and frozen on dry ice for subsequent glycogen determination.

| SMILES | reduction in adrenal weight (Mature female rats; 5 mg/kg) [%] | reduction in body weight gain (Mature female rats; 5 mg/kg) [%] | reduction in weight of the thymus (Mature female rats; 5 mg/kg) [%] | ED50 (Male rats; Rattus norvegicus, 168 h, daily oral doses for 7 days, male rats, inhibition of liquid exudate) [mg/kg] | anti-inflammatory activity by the a-tocopherol pouch test (Male rats; rats, result in words) | liver glycogen deposition ([1]; 9 mg/kg/day x 5, oral) | liver glycogen deposition ([1]; 27 mg/kg/day x 5, oral) | oral glucocorticoid activity by the liver glycogen deposition test ([1]; rats, oral, result in words) | reduction in adrenal weight (Mature female rats; 100 mg/kg) [%] | reduction in body weight gain (Mature female rats; 100 mg/kg) [%] | reduction in thymus weight (Mature female rats; 100 mg/kg) [%] | activity in the a-tocopherol pouch test (Male rats; 100 mg/kg, daily oral doses for 7 days, male rats) |
| --- | --- | --- | --- | --- | --- | --- | --- | --- | --- | --- | --- | --- |
| CC(=O)C1CC=C2C(CCC3=Cc4c(cnn4-c4ccc(F)cc4)CC32C)C1C(C)=O (single isomer, unassigned) [Compound I (R = CH3), 1,1'-[8-(4-Fluorophenyl)-2,3,4,4a,5,6,11,11a-octahydro-11a-methyl-8H-phenanthro[2,3-c]pyrazole-3,4-diyl]bis[ethanone]] | 40 | 80 | 59 | 23 | anti-inflammatory activity | 9.42 + 0.65 mg/g of tissue | 25.48 + 3.39 mg/g of tissue | oral glucocorticoid activity |  |  |  |  |
| CCOC(=O)C1(C(=O)OCC)CCC=C2C1CCC1=Cc3c(cnn3-c3ccc(F)cc3)CC12C (stereo not drawn) [Compound II (R = CH2CH3), Diethyl 8-(4-fluorophenyl)-2,3,4,4a,5,6,11,11a-octahydro-11a-methyl-8H-phenanthro[2,3-c]pyrazole-4,4-dicarboxylate] |  |  |  |  |  |  |  |  | 47 | 186 | 80 | inactive |
